Columns and labels:
Type in all cases: cell-based
platelets [1] = experiment: Inhibition of clot retraction (thrombin-induced, platelets with fibrinogen)
Method: Platelets (2×10^8 platelets/ml) were incubated with either piceatannol at a final concentration of 40 μg/ml, calpeptin at a final concentration of 200 μg/ml, or vehicle DMSO for 30 minutes in the dark. To each sample, fibrinogen was added to a final concentration of 300 nM, 1 mM Ca^2+, and 2 mM Mg^2+, 10 minutes prior to the addition of 0.5 unit/ml of thrombin. The clots were incubated for 30 minutes at 37° C. and then transferred to ice before taking photographs. Tubes: 1, vehicle control treated sample without the addition of thrombin; 2, vehicle control treated sample; 3, piceatannol treated sample; 4, calpeptin treated sample.
To determine the effect of the syk kinase inhibitor piceatannol and the calpain inhibitor calpeptin, the following experiments were carried out. Platelets (2×10^8 platelets/ml) were incubated with either piceatannol at a final concentration of 40 μg/ml, calpeptin at a final concentration of 200 μg/ml, or vehicle DMSO for 30 minutes in the dark. To each sample, fibrinogen was added to a final concentration of 300 nM, 1 mM Ca^2+, and 2 mM Mg^2+, 10 minutes prior to the addition of 0.5 unit/ml of thrombin. The clots were incubated for 30 minutes at 37° C. and then transferred to ice before taking photographs. […]

platelets [2] = experiment: Nitric oxide production from platelets (NO-501 monitor, TRAP-stimulated); details: 200 ug/ml, 20 uM TRAP, read for 300 seconds
Method: FIGS. 2A and 2B show the effect of calpeptin on NO production. Platelets at 2×10^8/ml were pre-incubated with either calpeptin at final concentration 200 ug/ml or vehicle DMSO for 30 minutes in the dark. To a final volume of 0.5 ml, fibrinogen was added to a final concentration of 1 mg/ml, 1 mM Ca^2+, and 2 mM Mg^2+, and […]) to a final concentration of 20 μM. The tube was placed in the NO-501 monitor to measure NO production and the platelets are stirred with a magnetic stirrer. TRAP (Thrombin Receptor Agonist Peptide) at a final concentration of 20 μM was added to start the reaction. […] The readings were taken for 300 seconds (5 minutes). FIGS. 3A and 3B show the effect of piceatannol on NO production. Platelets at 2×10^8/ml were pre-incubated with either piceatannol at final concentration 2.5 ug/ml or vehicle DMSO for 30 minutes in the dark. To a final volume of 0.5 ml, fibrinogen was added to a final concentration of 1 mg/ml, 1 mM Ca^2+, and 2 mM Mg^2+, and GPRP to a final concentration of 20 μM. The tube was placed in the NO-501 monitor to measure NO production and the platelets are stirred with a magnetic stirrer. TRAP (Thrombin Receptor Agonist Peptide) at a final concentration of 20 μM was added to start the reaction. […] The readings were taken for 300 seconds (5 minutes). […]

platelets [3] = experiment: Platelet aggregation (TRAP-stimulated, recorded together with NO production); details: 200 ug/ml
Method: (§1) FIGS. 2A and 2B show the effect of calpeptin on NO production. Platelets at 2×10^8/ml were pre-incubated with either calpeptin at final concentration 200 ug/ml or vehicle DMSO for 30 minutes in the dark. To a final volume of 0.5 ml, fibrinogen was added to a final concentration of 1 mg/ml, 1 mM Ca^2+, and 2 mM Mg^2+, and GPRP (gly-pro-arg-pro) to a final concentration of 20 μM. The tube was placed in the NO-501 monitor to measure NO production and the platelets are stirred with a magnetic stirrer. TRAP (Thrombin Receptor Agonist Peptide) at a final concentration of 20 μM was added to start the reaction. […] The readings were taken for 300 seconds (5 minutes).
as §1, with “Platelets” for “FIGS. 2A and 2B show the effect of calpeptin on NO production. Platelets”, “GPRP” for “GPRP (gly-pro-arg-pro)”

platelets [4] = experiment: Clot lysis in the presence of platelets (t-PA/Glu-plasminogen, fluorescent fibrinogen release); details: for Clot Lysis in the Presence of Platelets (value relative to control designated as 1): 90 min 37 C, t-PA 2 U/ml, Glu-plasminogen 20 ug/ml; for fibrinolysis of clots, of that of the control: clots made and lysed in the presence of platelets
Method: To assess the effect of piceatannol and calpeptin on the fibrinolytic effect of t-PA and plasminogen in the presence of platelets, we designed a two step procedure by modifying the fibrinolytic assay as described by Fay et al. (Blood, 83, 351-356, 1994). First, we developed a retracted clot in the presence of fluorescence tagged fibrinogen in tubes containing platelets by the addition of thrombin. The residual fluid was taken out and platelets were added to each tube either treated with piceatannol, calpeptin and the vehicle control DMSO respectively. Glu-plasminogen, t-PA were added and the reaction was started by the addition of thrombin. After 90 minutes, the fluid from each tube was taken out and put in separate microfuge tubes followed by centrifugation. The detection of fluorescence in the supernatant was a measure of clot lysis. To form the clot, Oregon green 488 conjugated fibrinogen (fluorescent, from Molecular Probe) at 300 nM final concentration, 1 mM Ca^2+, 2 mM Mg^2+, was added to platelets at 2×10^8/ml concentration in 0.5 ml. The clot retraction was started with the addition of 0.5 unit/ml thrombin. The tubes were kept at 37° C. in dark for 1 hour until the clot retraction was complete. The residual fluid was taken out from each tube. To initiate clot lysis, platelets at 2×10^8/ml concentration were treated with either 40 ug/ml piceatannol, 200 ug/ml calpeptin or vehicle DMSO. In 0.25 ml of each, Glu-plasminogen was added to a final concentration of 20 μg/ml, and t-PA was added to a final concentration of 2 U/ml. The reaction was started with the addition of thrombin at final concentration of 0.5 U/ml. The tubes were kept at 37° C. for 90 minutes. The fluid from each tube was taken in separate microfuge tubes and centrifuged at cold at 14000 rpm for 10 minutes. The supernatants were isolated. Each supernatant was diluted to 5 times and fluorescence in each sample was measured at excitation: 495 nm and emission: 525 nm.

`CC(C)(C)n1nc(-c2ccc(Cl)cc2)c2c(N)ncnc21` [PP2] was tested, and the “effect on clot retraction” value (platelets [1]; 10 uM (data not shown)) was “did not have any effect on clot retraction”.
For `CCCC[C@@H](C=O)NC(=O)[C@H](CC(C)C)NC(=O)OCc1ccccc1` [calpeptin], the “effect on clot retraction” value (platelets [1]; 200 ug/ml, 30 min pre-incubation, 0.5 unit/ml thrombin, 30 min 37 C) was “inhibited platelet mediated clot retraction”, the NO production (platelets [2]) was “increased and sustained NO production” and the “effect on platelet aggregation” value (platelets [3]) was “inhibits both platelet aggregation and clot retraction”. For the same molecule, the “Clot Lysis in the Presence of Platelets (value relative to control designated as 1)” value (platelets [4]; 200 ug/ml) was 6.2 and the “fibrinolysis of clots, of that of the control” value (platelets [4]; 200 ug/ml) was “about 600%”.
`Oc1cc(O)cc(/C=C/c2ccc(O)c(O)c2)c1` [piceatannol] was tested, and the “Clot Lysis in the Presence of Platelets (value relative to control designated as 1)” value (platelets [4]; 40 ug/ml) was 6.2 and the “fibrinolysis of clots, of that of the control” value (platelets [4]; 40 ug/ml) was “about 600%”.
